From patent publication US6015820A, “4-Aryl-thio-pyridin-2(1H)-ones, medicines containing them and their uses in the treatment of illnesses linked to HIV” (priority 1995, dated 2000)

Key:
IT of recombinant HIV-1 = target: T1, IT of recombinant HIV-1 (Human immunodeficiency virus type 1 group M subtype B, UniProt P03369); assay: inhibition of the inverse transcriptase of recombinant HIV-1; assay type: biochemical
T1 construct: purify the IT enzyme of the recombinant HIV-1; made in house; host or cells: yeast cells transformed with the pAB 24/IT-4 vector
Experimental: Yeast cells transformed with the pAB 24/IT-4 vector were used to purify the IT enzyme of the recombinant HIV-1 as described by Sallafranque-Andreola et al. (1989 Eur. J. Biochem. 184, 364-374).
(§1) Incubation was carried out at 37° C. for 10 minutes in the presence of various matrix-primers.
(§2) a) Poly C-oligo dG: the reaction mixture contained a final volume of 0.05 ml, Tris-HCl 50 mM pH 8.0, MgCl2 5 mM, dithiothreitol 4 mM, 0.48 A260 /ml of poly C-oligo dG (5:1), 1.0 μCi of [^3 H]dGTP (28 Ci/mmole), dGTP 2 μM, KCl 80 mM, 1 μg of bovine serum albumin and IT 20-50 nM.
(§3) b) Poly A-oligo dT: the same conditions as in a), except that 0.48 A260 /ml of poly A-oligo dT (5:1), 0.5 μCi of [^3 H]dTTP (46 Ci/mmole), dTTP 20 μM were used.
(§4) The reactions were stopped by adding in the cold 1 ml of 10% trichloroacetic acid plus sodium pyrophosphate 0.1 M. The precipitates were filtered through nitrocellulose membranes, washed with 2% trichloroacetic acid, dried and counted in a PPO/POPOP/toluene scintillation mixture.
(§5) All the compounds were dissolved in dimethyl#sulphoxide (DMSO). The test samples were prepared in the presence of the same final concentration of DMSO. IC50 is the concentration required to inhibit the activity of the IT of the recombinant HIV-1 by 50%.

IT of HIV-2 = IT of HIV-2 (Human immunodeficiency virus type 2 (ISOLATE ROD), UniProt P04584); assay: inhibition of the inverse transcriptase of HIV-2; assay type: biochemical; conditions: at concentrations at which the IT of HIV-1 was well inhibited (FIG. 9)
Sequence of IT of HIV-2 (P04584 613-1171): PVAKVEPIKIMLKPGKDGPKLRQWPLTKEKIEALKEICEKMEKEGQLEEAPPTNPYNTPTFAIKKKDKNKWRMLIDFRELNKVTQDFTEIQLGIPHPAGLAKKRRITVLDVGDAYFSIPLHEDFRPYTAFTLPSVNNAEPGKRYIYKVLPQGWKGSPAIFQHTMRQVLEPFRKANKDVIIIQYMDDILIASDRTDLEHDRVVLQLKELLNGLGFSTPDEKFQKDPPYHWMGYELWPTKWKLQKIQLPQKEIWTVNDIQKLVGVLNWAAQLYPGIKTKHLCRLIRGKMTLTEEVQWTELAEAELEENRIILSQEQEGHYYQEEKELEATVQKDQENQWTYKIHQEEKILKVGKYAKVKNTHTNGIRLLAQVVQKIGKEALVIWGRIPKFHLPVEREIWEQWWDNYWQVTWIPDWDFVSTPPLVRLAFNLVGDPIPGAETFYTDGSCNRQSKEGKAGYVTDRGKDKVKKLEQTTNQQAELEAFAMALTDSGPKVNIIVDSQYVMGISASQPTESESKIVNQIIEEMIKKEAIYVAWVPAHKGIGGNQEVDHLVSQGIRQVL
Experimental: The system for the expression of the IT of HIV-2 in E.coli (B. Muller et al. (1991 J. Biol. Chem. 266, 14708-14713) was provided by Dr. R. Goody. The IT of the HIV-2 was purified in the same way as the IT of the HIV-1.
as §1, §2, §3, §4, §5

[1] = target: inverse transcriptase of HIV-1 (HIV-1 M:B_ARV2/SF2, UniProt P03369); assay: enzymatic kinetic analysis of IT inhibition (Lineweaver-Burk); assay type: biochemical
Experimental: FIG. 12 is a double-reciprocal (Lineweaver-Burk) representation of the inhibition of the inverse transcriptase of HIV-1 by compound 7c with the poly C-oligo dG as a matrix-primer couple and dGPT as substrate.
FIG. 13 is a double-reciprocal representation, similar to […], in which the poly A-oligo dT is used as a matrix-primer couple and dTTP as substrate.
as §1, §2, §3, §4

HIV-1 LAI = assay: anti-HIV-1 activity: replication of HIV-1 LAI on CEM-SS cells; assay type: cell-based; conditions: Table 2, HIV-1 LAI, CEM-SS cells; for IC50: Human immunodeficiency virus 1, 120 h, 5 days, read-out: IC50, anti-HIV-1 activity
Experimental: (§6) The CEM-SS and the HIV-1 resistant to Nevirapine (N119) carrying a point mutation at codon 181 of the IT, were supplied respectively by P. NARA and D. RICHMAN through the intermediary of the AIDS Research and Reference Reagent Program, Division of AIDS, NIAID, NIH (USA) (Catalogue references : No. 776 and No. 1392).
(§7) The virus production was measured by quantifying the activity of the inverse transcriptase associated with viral particles released into the culture supernatant. In short, cells were infected with 100 TCID50 for 30 minutes; after adsorption of the virus, unbound particles were removed by two washings and the cells were cultivated in the presence of different concentrations of the compounds tested for 5 days before determining the viral production. The concentration inhibiting 50% of the viral multiplication (IC50) came from the computer plot of the median effect of the dose effect results (Chou et al. Elsevier Science Publishers, Cambridge U.K. (1985), 19-28).

[2] = tested on: HIV-1 resistant to Nevirapine (N119); assay: microbe, parasite or virus in culture; assay type: cell-based; conditions: for IC50: Human immunodeficiency virus 1, CEM-SS, read-out: IC50, strain resistant to Nevirapine; for SI (selectivity index): Table 3, strain resistant to Nevirapine
Experimental: as §6, with “The effects of the compounds were evaluated on the replication of HIV-1 (see Table 2) on CEM-SS cells (cell lines of the lymphocytic lineage) strongly infected with HIV-1 LAI as described by Moog et al. (Antiviral Research (1994), 24, 275-288). The” for “The”
as §7

[3] = cytotoxicity on non-infected cells (MTT test); assay type: cell-based; conditions: human; Table 2; non-infected CEM-SS cells, MTT, 5 days
Experimental: (§8) In parallel experiments, the cytotoxicity of the molecules was measured on non-infected cells, after an incubation of 5 days in the presence of these molecules, by using a […] titration (MTT test) based on the ability of the mitochondrial dehydrogenases of the living cells to reduce 3-(4,5-dimethylthiazol-2-yl)-2,5-diphenyltetrazolium bromide in formazan (Mosmann et al. J. Immunol. Methods ([…]), 65, 55-63). The concentration cytotoxic at 50% (CC50) is the concentration at which the DO540 has been reduced to half and is calculated by using the program mentioned above.

CEM-SS cells = assay: cytotoxicity on non-infected cells (MTT test); assay type: cell-based; conditions: Table 3; non-infected cells, MTT, 5 days
Experimental: as §8

| SMILES | IC50 (IT of recombinant HIV-1) [nM] | effect on activity of the IT of HIV-1 in HIV-1/HIV-2 comparison (IT of recombinant HIV-1; FIG. 9) | IT inhibition according to matrix-primer couple (IT of recombinant HIV-1; poly C-oligo dG compared with poly A-oligo dT (FIG. 9)) | effect on activity of the IT of HIV-2 (IT of HIV-2) | type of inhibition ([1]; as regards dGTP substrate, poly C-oligo dG matrix-primer (FIG. 12)) | type of inhibition ([1]; poly A-oligo dT matrix-primer, dTTP substrate (FIG. 13)) | IC50 (HIV-1 LAI) [nM] | SI (selectivity index) (HIV-1 LAI) | IC50 [2] [nM] | SI (selectivity index) [2] | CC50 at 120 h [3] [nM] | CC50 (CEM-SS cells) [nM] |
| --- | --- | --- | --- | --- | --- | --- | --- | --- | --- | --- | --- | --- |
| CCc1c(C)nc(O)c(N)c1Sc1cc(C)cc(C)c1 [Compound 8c, 3-amino-5-ethyl-6-methyl-4-(3', 5'-dimethylphenyl)thio-pyridin-2(1H)-one] | 15 | well inhibited | gave the same result | not affected | non-competitive | competitive | 14 | > 714 | 2100 | > 4 | > 10000 | > 10000 |
| CCOC(=O)c1c(Sc2cc(C)cc(C)c2)c(CC)c(C)[nH]c1=O [Compound 15, 5-ethyl-6-methyl-3-carbethoxy-4-(3', 5'-dimethylphenyl)thio-pyridin-2(1H)-one] | 600 | – | – | – | – | – | 3 | > 3333 | 2200 | > 4.5 | > 10000 | > 10000 |
